From PubChem BioAssay (NCI) come the findings set out here.

“And” between values parts separate entries of the source, which are not always exact repeats. Identical values can stand only once.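 Protocol summary: plate cells (96-well), add compound at 5 concentrations, incubate 48 h, interpolate endpoints linearly. Here, GI50 denotes the concentration required for 50% inhibition of growth. TGI is the concentration that stops growth completely.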

Some test systems named below: ACHN renal; MDA-MB-435; UO-31 renal; SF-295 CNS; UACC-62 melanoma; COLO 205 colon; HCC-2998 colon; MALME-3M melanoma; OVCAR-3 ovarian; HOP-62 NSCLC.
Holding throughout (assay): NCI tumour cell line growth inhibition, 48 h

For the compound `CC(C)(C)c1cnc(CSc2cnc(NC(=O)C3CCNCC3)s2)o1`, the GI50 in the experiment on ACHN renal was 2.12 µM and 2.14 µM; with MDA-MB-435 it was 0.189 µM and 0.232 µM; in the experiment on UO-31 renal, 5.6 µM and 2.07 µM; with SF-295 CNS it was 0.185 µM and 0.602 µM; in the experiment on UACC-62 melanoma it was 0.16 µM and 0.178 µM; with COLO 205 colon, 0.0687 µM and 0.0561 µM. The GI50 in the experiment on HCC-2998 colon is 0.27 µM and 0.243 µM; in the experiment with MALME-3M melanoma, 0.229 µM and 0.286 µM; with OVCAR-3 ovarian, 0.223 µM and 0.181 µM; in the experiment with HOP-62 NSCLC, 0.282 µM and 0.343 µM. For the same compound, the TGI is over 52.1 µM in the experiment on ACHN renal; 0.905 µM and 1.07 µM in the experiment on MDA-MB-435; 21.7 µM and > 8.99 µM with UO-31 renal; over 10 µM in the experiment with SF-295 CNS; 0.403 µM and 0.702 µM in the experiment with UACC-62 melanoma; 0.207 µM and 0.24 µM with COLO 205 colon. The TGI in the experiment on HCC-2998 colon is 3.79 µM and 1.67 µM; with MALME-3M melanoma, 0.511 µM and 0.907 µM; in the experiment on OVCAR-3 ovarian, 3.61 µM and > 2.95 µM; with HOP-62 NSCLC, 7.06 µM and > 8.87 µM.
With `Fc1nc(Sc2ncnc3nc[nH]c23)nc(-c2c3ccccc3c3sc4ccccc4n23)n1`, the TGI in the experiment with ACHN renal, with MDA-MB-435, in the experiment with UO-31 renal, in the experiment on SF-295 CNS, in the experiment with UACC-62 melanoma and in the experiment with COLO 205 colon was over 100 µM throughout. Besides, the TGI with HCC-2998 colon, in the experiment with MALME-3M melanoma, in the experiment with OVCAR-3 ovarian and in the experiment with HOP-62 NSCLC was over 100 µM throughout.
Regarding `CNc1ccc(CSc2ccc(C)cc2)cc1`, the GI50 is 34 µM in the experiment with ACHN renal; 13.1 µM in the experiment on MDA-MB-435; 1.16 µM in the experiment with UO-31 renal; 22.3 µM with SF-295 CNS; 17.3 µM in the experiment with UACC-62 melanoma; 15.7 µM in the experiment on COLO 205 colon. The GI50 in the experiment on HCC-2998 colon is 18.8 µM; in the experiment on MALME-3M melanoma, 31.5 µM; with OVCAR-3 ovarian, 11.7 µM; in the experiment on HOP-62 NSCLC, over 100 µM. Also, the TGI was over 100 µM in the experiment on ACHN renal; over 100 µM in the experiment on MDA-MB-435; 4.32 µM with UO-31 renal; over 100 µM in the experiment on SF-295 CNS; 52.9 µM in the experiment on UACC-62 melanoma; 29.3 µM in the experiment on COLO 205 colon. In addition, the TGI with HCC-2998 colon is 83.2 µM; with MALME-3M melanoma it was over 100 µM; in the experiment on OVCAR-3 ovarian, over 100 µM; in the experiment on HOP-62 NSCLC, over 100 µM.
For the compound `CCCCCCC1CCCCN1C(c1ccccc1)C(O)c1ccccc1` (stereo not given), the GI50 in the experiment with ACHN renal was 10 µM; in the experiment on MDA-MB-435, 4.71 µM; in the experiment on UO-31 renal, 5.69 µM; in the experiment with SF-295 CNS it was 4.31 µM; in the experiment on UACC-62 melanoma, 11.7 µM; in the experiment with COLO 205 colon, 3.09 µM. In addition, the GI50 with HCC-2998 colon was 3.65 µM; in the experiment with MALME-3M melanoma, 5.37 µM; with OVCAR-3 ovarian it was 8.49 µM; with HOP-62 NSCLC it was 10.3 µM. In addition, the TGI in the experiment with ACHN renal was determined as 21.6 µM; with MDA-MB-435 it was 19.2 µM; with UO-31 renal, 19.8 µM; in the experiment on SF-295 CNS, 18.4 µM; in the experiment on UACC-62 melanoma, 24.8 µM; with COLO 205 colon, 11.4 µM. In addition, the TGI turned out to be 10.4 µM in the experiment with HCC-2998 colon, 19.7 µM with MALME-3M melanoma, 20.8 µM in the experiment with OVCAR-3 ovarian and 22.5 µM in the experiment on HOP-62 NSCLC.
Take `COc1cc(/C=C/C(=O)/C=C/c2ccc(-n3ccnc3)cc2)ccc1O`: the GI50 is 3.27 µM in the experiment with ACHN renal; 2.21 µM in the experiment on MDA-MB-435; 1.51 µM with UO-31 renal; 14 µM in the experiment with SF-295 CNS; 5.01 µM with UACC-62 melanoma; 3.26 µM in the experiment on COLO 205 colon. Further, the GI50 is 1.79 µM with HCC-2998 colon, 5.4 µM in the experiment on MALME-3M melanoma, 3.14 µM in the experiment with OVCAR-3 ovarian and 3.12 µM in the experiment with HOP-62 NSCLC. Besides, the TGI in the experiment with ACHN renal came out at 12.6 µM; with MDA-MB-435 it was 5.14 µM; in the experiment on UO-31 renal, 3.15 µM; in the experiment with SF-295 CNS, 33 µM; in the experiment on UACC-62 melanoma, 30.2 µM; in the experiment with COLO 205 colon, 10.1 µM. Also, the TGI with HCC-2998 colon amounted to 3.42 µM; with MALME-3M melanoma, 36.7 µM; with OVCAR-3 ovarian it was 10 µM; with HOP-62 NSCLC it was 11.8 µM.
In the case of `O=C(NCCNC1=CC(=O)c2nc3ccccc3c3ccnc1c23)c1cnccn1`, the GI50 in the experiment on ACHN renal is 32.4 µM; in the experiment on MDA-MB-435, 14.5 µM; in the experiment with UO-31 renal, 62.4 µM; with SF-295 CNS, 18.9 µM; in the experiment with UACC-62 melanoma, 73.7 µM; with COLO 205 colon, 52 µM. Also, the GI50 in the experiment on HCC-2998 colon was 27.6 µM; in the experiment on MALME-3M melanoma it was 18.2 µM; in the experiment with OVCAR-3 ovarian it was 2.42 µM; in the experiment with HOP-62 NSCLC, 18.9 µM. Moreover, the TGI is over 100 µM in the experiment on ACHN renal; 63.2 µM in the experiment on MDA-MB-435; over 100 µM in the experiment on UO-31 renal; over 100 µM in the experiment on SF-295 CNS; over 100 µM in the experiment with UACC-62 melanoma; over 100 µM in the experiment with COLO 205 colon. Further, the TGI was over 100 µM in the experiment with HCC-2998 colon, over 100 µM in the experiment with MALME-3M melanoma, 19.1 µM with OVCAR-3 ovarian and over 100 µM in the experiment with HOP-62 NSCLC.
Regarding `COc1ccc(N=C2C(=O)Nc3ccc(Br)cc32)cc1`, the TGI was 38.6 µM in the experiment with ACHN renal; 27.4 µM in the experiment with MDA-MB-435; 26.5 µM in the experiment with UO-31 renal; over 100 µM in the experiment on SF-295 CNS; 19.9 µM in the experiment with UACC-62 melanoma; 34.6 µM with COLO 205 colon. The TGI in the experiment on HCC-2998 colon amounted to 37.4 µM; in the experiment on MALME-3M melanoma it was 43 µM; in the experiment on OVCAR-3 ovarian, 62.4 µM; in the experiment with HOP-62 NSCLC, 88.4 µM.
Take `Cn1cc(C2=C(c3cccc([N+](=O)[O-])c3)C(=O)NC2=O)c2ccccc21`: the GI50 was 4.88 µM in the experiment with ACHN renal; 7.46 µM with MDA-MB-435; 6.46 µM in the experiment with UO-31 renal; 2.14 µM in the experiment with SF-295 CNS; 6.58 µM in the experiment on UACC-62 melanoma; 8.32 µM with COLO 205 colon. Besides, the GI50 is 14.5 µM in the experiment on HCC-2998 colon, 13.6 µM with MALME-3M melanoma, 5.33 µM with OVCAR-3 ovarian and 7.47 µM in the experiment on HOP-62 NSCLC. The TGI was over 25 µM in the experiment on ACHN renal; over 25 µM in the experiment on MDA-MB-435; over 25 µM with UO-31 renal; over 14 µM in the experiment with SF-295 CNS; 18.1 µM in the experiment on UACC-62 melanoma; over 25 µM in the experiment on COLO 205 colon. For the same compound, the TGI with HCC-2998 colon was over 25 µM; in the experiment on MALME-3M melanoma, over 25 µM; in the experiment with OVCAR-3 ovarian it was over 22 µM; in the experiment with HOP-62 NSCLC, over 25 µM.
